From patent publication US20070093549A1, “Methods for preparation of ladostigil tartrate crystalline form A1” (priority 2005, published 2007)

How the values were obtained:
[1] = system: animal models of Alzheimer's disease; conditions: background statement with literature references; cited from earlier work
[2] = Effect of micronization, pressing and grinding (XRD); format: physicochemical; conditions: pressing 1 minute at 100 metric tons, by XRD
Method: (§1) X-Ray powder diffraction data were obtained by a SCINTAG powder X-Ray diffractometer model X'TRA equipped with a solid state detector. Copper radiation of 1.5418 Å was used. A round aluminum sample holder with round zero background quartz plate, with cavity of 25 (diameter)*0.5 (depth) mm was used.
The effects of micronization, pressing (1 minute at 100 metric tons) and grinding were determined by XRD and the following results were obtained: […]

[3] = Exposure of form A1 to various humidity conditions (TGA and crystal form); format: physicochemical
Method: as §1
TGA analysis was done using a Mettler M3 meter. The weight of the samples was about 10 mg. The samples were scanned at a rate of 10° C./min from 25° C. to 200° C. The oven was constantly purged with nitrogen gas at a flow rate of 40 ml/min. Standard 70 μl alumina crucibles covered by lids with 1 hole were used.
Ladostigil tartrate form A1 was exposed to various humidity conditions at room temperature for 14 days. TGA was performed, and crystal form was analyzed.

[4] = RH 100%, room temperature, 14 days

**Q.** With C#CCN[C@@H]1CCc2ccc(OC(=O)N(C)CC)cc21 [Ladostigil, ethyl-methyl-carbamic acid (R)-3-prop-2-ynylamino-indan-5-yl ester] as the molecule, how does the “efficacy in animal models of Alzheimer's disease” value [1] read?
**A.** Its value is “effective”.

**Q.** Which crystallinity after pressing [2] does the source give for “carbamic acid, ethylmethyl-, (3R)-2,3-dihydro-3-(2-propynylamino)-1H-inden-5-yl ester, (2R,3R)-2,3-dihydroxybutanedioate (2:1) [Ladostigil tartrate form A1]” here?
**A.** The crystallinity after pressing was “lose some extent of crystallinity”.

**Q.** And the TGA ([3]; RH 60%, room temperature, 14 days)?
**A.** The TGA was 0.2.

**Q.** And the TGA ([3]; RH 80%, room temperature, 14 days)?
**A.** Its TGA is 0.1.

**Q.** And the Resulting form [3, 4]?
**A.** Its Resulting form is “transformed to a mixture of Form A and A1”.

**Q.** What about the TGA [3, 4] of the same molecule?
**A.** Its TGA is 0.1.

**Q.** And the water content change ([3]; after exposure to 100% RH for 14 days)?
**A.** Its water content change is “did not change significantly”.

**Q.** And the hygroscopicity ([3]; concluded from humidity exposure results)?
**A.** Its hygroscopicity is “neither Form A nor Form A1 is hygroscopic”.
